Laboratory results: patent US4200573A, “Derivatives of 3-carboxyrifamycin S and SV and process for their preparation” (Alfa Farmaceutici, S.p.A., priority 1977, dated 1980)
≈ marks a conversion by molar mass, not a printed value. Entries after “also recorded” stand apart in the source; their conditions may differ.

Legend:
[1] = test system: E. Coli ML/35; experiment: Minimal inhibiting concentration (MIC), in vitro antibacterial activity, E. Coli ML/35; format: cell-based; conditions: Escherichia coli
From the text: (§1) The derivatives of 3-carboxyrifamycins S and SV according to the present invention have an antibacterial activity in vitro as shown by the data in the examples where are reported the minimal inhibiting concentrations (MIC) expressed in mcg/ml against different patogenic microorganisms.

[2] = test system: Klebsiella Ottaviani; experiment: Minimal inhibiting concentration (MIC), in vitro antibacterial activity, Klebsiella Ottaviani; format: cell-based; conditions: read-out: Minimal inhibiting concentration (MIC)
From the text: as §1

[3] = test system: Salmonella p typhi B; experiment: Minimal inhibiting concentration (MIC), in vitro antibacterial activity, Salmonella p typhi B; format: cell-based; conditions: read-out: Minimal inhibiting concentration (MIC)
From the text: as §1

[4] = test system: St. Aureus 209 P; experiment: Minimal inhibiting concentration (MIC), in vitro antibacterial activity, St. Aureus 209 P; format: cell-based; conditions: Staphylococcus aureus
From the text: as §1

[5] = chemical stability (observation); format: physicochemical

Row | Molecule | MIC [1] | MIC [2] | MIC [3] | MIC [4] | stability [5]
1 | CO[C@H]1/C=C/O[C@@]2(C)Oc3c(C)c(O)c4c(c3C2=O)C(=O)C(C(=O)N(C)C)=C(NC(=O)/C(C)=C\C=C\[C@H](C)[C@H](O)[C@@H](C)[C@@H](O)[C@@H](C)[C@H](OC(C)=O)[C@@H]1C)C4=O [Example 13, 3-(N,N dimethylaminocarbonyl)rifamycin S] | > 50 µg/mL | > 50 µg/mL | > 50 µg/mL | – | –
2 | COC(=O)C1=C2NC(=O)/C(C)=C\C=C\[C@H](C)[C@H](O)[C@@H](C)[C@@H](O)[C@@H](C)[C@H](OC(C)=O)[C@H](C)[C@@H](OC)/C=C/O[C@@]3(C)Oc4c(C)c(O)c(c(c4C3=O)C1=O)C2=O [Example 6, 3-(carbomethoxy)rifamycin S] | 25 to 50 µg/mL (≈ 33.2 to 66.3 µM) | 25 to 50 µg/mL (≈ 33.2 to 66.3 µM) | > 50 µg/mL | 0.05 to 0.1 µg/mL (≈ 0.0663 to 0.133 µM) | –
3 | CO[C@H]1/C=C/O[C@@]2(C)Oc3c(C)c(O)c4c(c3C2=O)C(=O)C(C(=O)OCC(O)CO)=C(NC(=O)/C(C)=C\C=C\[C@H](C)[C@H](O)[C@@H](C)[C@@H](O)[C@@H](C)[C@H](OC(C)=O)[C@@H]1C)C4=O (some centres unmarked) [Example 12, 3-(1 glyceroxycarbonyl)rifamycin S] | > 100 µg/mL | > 100 µg/mL | > 100 µg/mL | ~0.5 µg/mL (≈ 0.614 µM) | –
4 | CO[C@H]1/C=C/O[C@@]2(C)Oc3c(C)c(O)c4c(c3C2=O)C(=O)C(C(=O)NN(C)C)=C(NC(=O)/C(C)=C\C=C\[C@H](C)[C@H](O)[C@@H](C)[C@@H](O)[C@@H](C)[C@H](OC(C)=O)[C@@H]1C)C4=O [Example 10, 3-(NN-dimethyl N-hydrazinocarbonyl)rifamycin S] | > 50 µg/mL | > 50 µg/mL | > 50 µg/mL | – | –
5 | 3-carboxyrifamycin | – | – | – | – | instable product and gives very easily rise to reaction of decarboxylation; also recorded: unstable product which easily decomposes
6 | CO[C@H]1/C=C/O[C@@]2(C)Oc3c(C)c(O)c4c(c3C2=O)C(=O)C(C(=O)N(C)N2CCCCC2)=C(NC(=O)/C(C)=C\C=C\[C@H](C)[C@H](O)[C@@H](C)[C@@H](O)[C@@H](C)[C@H](OC(C)=O)[C@@H]1C)C4=O [Example 14, 3-((N-(N'-piperidinyl)N-methyl)aminocarbonyl)rifamycin S] | > 50 µg/mL | > 50 µg/mL | > 50 µg/mL | ~0.03 µg/mL (≈ 0.0359 µM) | –
7 | CO[C@H]1/C=C/O[C@@]2(C)Oc3c(C)c(O)c4c(c3C2=O)C(=O)C(C(=O)N2CCN(C)CC2)=C(NC(=O)/C(C)=C\C=C\[C@H](C)[C@H](O)[C@@H](C)[C@@H](O)[C@@H](C)[C@H](OC(C)=O)[C@@H]1C)C4=O [Example 8, 3-(N-methyl N'-piperazinylcarbonyl)rifamycin S] | > 50 µg/mL | > 50 µg/mL | > 50 µg/mL | 0.1 to 0.25 µg/mL (≈ 0.122 to 0.304 µM) | –
